Results as given in patent US8889861B2, “Crystalline forms of a purine derivative” (Cyclacel Limited, priority 2010, dated 2014).
≈ marks a conversion by molar mass, not a printed value. Where “and” joins values, the source holds several entries; their conditions need not be identical. Identical values can stand only once. Entries after “also recorded” stand apart in the source; their conditions may differ. Like-named read-outs stand apart in the source and are kept apart here. One block for each compound: values may come before it.

Tests used:
[1] = Storage in a humidity chamber at 25° C. (75%, 94% or 97% RH); type: physicochemical; details: for observation on storage: 25° C./97% RH, time not stated
Protocol: However, a large proportion of the peaks corresponding to compound (I) appear as broadened multiplets, probably due to the presence of the sulfonic acid group, making successful assignment non-trivial. A significant quantity of residual TBME was also visible, though this is believed to be unbound solvent rather than a solvate. XRPD analysis confirmed the material to be crystalline. […] Deliquescence of a sample of the product was observed after storage in a humidity chamber at 25° C. and 94% RH for 2 hours. […]

[2] = Gravimetric vapour sorption (GVS) / hygroscopicity; type: physicochemical; details: for reversible uptake of water from 0 to 90% RH: GVS; for mass increase (GVS): 25° C., 40-90% RH
Protocol: Gravimetric Vapour Sorption (GVS)
Sorption isotherms were obtained using a SMS DVS Intrinsic moisture sorption analyser, controlled by SMS Analysis Suite software. […] The humidity was controlled by mixing streams of dry and wet nitrogen, with a total flow rate of 200 ml. min^−1. The relative humidity was measured by a calibrated Rotronic probe (dynamic range of 1.0-100% RH), located near the sample. The weight change, (mass relaxation) of the sample as a function of % RH was constantly monitored by the microbalance (accuracy ±0.005 mg). Typically 5-20 mg of sample was placed in a tared mesh stainless steel basket under ambient conditions. The sample was loaded and unloaded at 40% RH and 25° C. (typical room conditions). A moisture sorption isotherm was performed as outlined below (2 scans giving 1 complete cycle). The standard isotherm was performed at 25° C. at 10% RH intervals over a 0.5-90% RH range.
Method Parameters for SMS DVS Intrinsic Experiments:
The sample was recovered after completion of the isotherm and re-analysed by XRPD.
Hiden Isochema Moisture Sorption Analyser (IGAsorp)
Sorption isotherms were obtained using a Hiden Isochema Moisture Sorption Analyser (IGAsorp) controlled by IGAsorp Systems Software V6.50.48. […] The humidity was controlled by mixing streams of dry and wet nitrogen, with a total flow rate of 250 ml. min^−1. The instrument was verified for relative humidity content by measuring three calibrated Rotronic salt solutions (10-50-88%). The weight change of the sample as a function of % RH was monitored by microbalance (accuracy ±0.005 mg). A defined amount of sample was placed in a tared mesh stainless steel basket under ambient conditions. A full experimental cycle consisted of two scans (sorption and desorption) at a constant temperature (25° C.) and 10% RH intervals over a 10-90% RH range (90 minutes for each humidity level).
11.254 mg of sample was placed in a tarred mesh stainless steel basket under ambient conditions. A full experimental cycle consisted of two scans (sorption and desorption) at a constant temperature (25° C.) and 10% RH intervals over a 40-90% range (180 minutes for each humidity level). The mass increase of approximately 0.09 mg (−0.8%) and the facile uptake and loss relative to humidity level indicates a non-hygroscopic sample that dampens with surface moisture only.

[3] = Polymorph interconversion of L-tartrate Forms D and E (slurry conversion); details: slurry: 1:1 Form D:Form E, 45° C., 48 hours, ethyl acetate, IPA, IMS or acetonitrile
Protocol: Form E of the L-Tartrate salt of compound (I) was also prepared by slurry conversion from four different solvents (ethyl acetate, IPA, IMS or acetonitrile). A 1:1 mixture of Form by weight of D: Form E L-Tartrate salt (200 mg total) was heated at 45° C. over 48 hours in 2 ml of solvent prior to filtration and analysis.

Storage at 40° C./75% RH = type: physicochemical; details: for 40° C./75% RH, XRPD / 40° C./75% RH, appearance: 7 d; for 40° C./75% RH, observation or form change: storage time not stated
Protocol: A new XRPD pattern corresponding to the HBr salt was obtained upon storage of HBr Pattern 1 (Form J) at 40° C./75% relative humidity.
The sample was dried in a vacuum oven at 40° C./3 mbar for 18 h to yield the L-malate (Form R) as a white solid. NMR analysis of the sample of Form R formed during the storage of Form Q at 40° C./75% RH confirmed it to be a mono-malate salt.

[4] = 24 h
Protocol: Thermodynamic Aqueous Solubility
The suspension was equilibrated at 25° C. for 24 hours then the pH was measured. The suspension was then filtered through a glass fibre C filter into a 96 well plate. The filtrate was then diluted by a factor of 101. Quantitation was by HPLC with reference to a standard solution of approximately 0.1 mg. ml^−1 in DMSO. Different volumes of the standard, diluted and undiluted sample solutions were injected.
The suspension was equilibrated at 25° C. for 24 hours. The suspension was then filtered through a filter into an HPLC vial. The filtrate was then diluted by an appropriate factor. Quantification was executed by HPLC with reference to a standard solution of 0.5 mg in 1 mL acetonitrile/water (1:1). Different volumes of the standard, diluted and undiluted sample solutions were injected.
The pH of the solution post solubility was pH 5.

cyclin dependent kinases = details: cited from earlier work
[5] = system: range of different cell lines; details: cited from earlier work
[6] = Rehydration under ambient conditions followed by TGA; type: physicochemical; details: 8 mg sample in open TGA pan after heating to 100° C., ambient conditions (approximately 25° C. and 40% RH)
Protocol: A sample of product was heated to 100° C., held for 10 minutes, cooled to 30° C., held for 5 minutes and then re-heated to 250° C. […] To investigate whether the phosphate salt exists as a hydrate under ambient conditions that can be reversibly dehydrated at temperature in the presence of air, a series of TGA experiments were undertaken to clarify how quickly the material rehydrates under ambient conditions. A series of samples were taken to 100° C. then cooled to 25° C. under nitrogen using the TGA equipment. The samples were stored under ambient conditions (RT in air) for varying times and then the TGA experiment was re-run. As a comparison a heat/cool/heat experiment was undertaken under an inert atmosphere of nitrogen using the TGA; a sample was heated to 100° C., cooled to 25° C. and heated to 100° C. for a second time.
Within 30 minutes an 8 mg sample of product in an open TGA pan had fully rehydrated.

SMILES: CC[C@H](Nc1nc(NCc2cnc(C)cc2C)c2ncn(C(C)C)c2n1)[C@@H](C)O [Form D]
XRPD after storage ([1]; 25° C. and 75% RH for 4 days): consistent with that of the original product | appearance after storage ([1]; 25° C. and 75% RH for 4 days): unchanged | XRPD after storage ([1]; 25° C. and 94% RH for 70 hours): some peaks corresponding to those in the pattern acquired for the original product, though a significant amorphous halo was also visible | appearance after storage ([1]; 25° C. and 94% RH for 70 hours): slightly tacky, though it had not deliquesced | hydrate formation at high RH (GVS) [2]: no hydrate is formed | hygroscopicity [2]: hygroscopic only above 70% RH | relative stability of the L-tartrate polymorphs [3]: metastable

SMILES: CC[C@H](Nc1nc(NCc2cnc(C)cc2C)c2ncn(C(C)C)c2n1)[C@@H](C)O [compound (I)]
CDK inhibitory activity (cyclin dependent kinases): potent | potency in cellular toxicity studies [5]: surprisingly high potency

SMILES: CC[C@H](Nc1nc(NCc2cnc(C)cc2C)c2ncn(C(C)C)c2n1)[C@@H](C)O [Form E]
hygroscopicity [2]: only slightly hygroscopic | Aqueous solubility [4]: 43.9 mg/mL | aqueous solubility [4]: 43.905 mg/mL (≈ 110 mM)

SMILES: CC[C@H](Nc1nc(NCc2cnc(C)cc2C)c2ncn(C(C)C)c2n1)[C@@H](C)O [Form A]
hygroscopicity [2]: non-hygroscopic | mass increase (GVS) [2]: −0.8% | mass increase (GVS) ([2]; 11.254 mg sample): approximately 0.09 mg | XRPD of sample post GVS ([2]; GVS at 25° C.): no change

SMILES: CC[C@H](Nc1nc(NCc2cnc(C)cc2C)c2ncn(C(C)C)c2n1)[C@@H](C)O [Form B]
XRPD after storage ([1]; 25° C. and 94% RH for 88 hours): matched those acquired for the phosphate salt crystallised from ethanol | appearance after storage ([1]; 25° C. and 94% RH for 88 hours): no deliquescence was observed | hygroscopicity [2]: not to be hygroscopic | XRPD of sample post GVS ([2]; GVS at 25° C.): matched those acquired from product crystallised from ethanol | uptake of water above 80% RH ([2]; GVS at 25° C.): ~1.5 weight % | water lost upon taking to 0% RH ([2]; GVS at 25° C.): 0.5 weight % | XRPD of sample post GVS ([2]; GVS at 40° C.): matched those acquired from product crystallised from ethanol | uptake of water above 80% RH ([2]; GVS at 40° C.): ~2 weight % | water lost upon taking to 0% RH ([2]; GVS at 40° C.): ~2.6 weight % | time to full rehydration [6]: ≤ 30 min

SMILES: CC[C@H](Nc1nc(NCc2cnc(C)cc2C)c2ncn(C(C)C)c2n1)[C@@H](C)O [Form R]
hygroscopicity [2]: less hygroscopic than the benzensulfonate and citrate salts | reversible uptake of water from 0 to 90% RH [2]: Reversible uptake of ~2.5 wt % H2O from 0 to 90% RH

SMILES: CC[C@H](Nc1nc(NCc2cnc(C)cc2C)c2ncn(C(C)C)c2n1)[C@@H](C)O [Form C]
hygroscopicity [2]: low hygroscopicity; also recorded: not hygroscopic | uptake of water between 60 and 90% RH ([2]; GVS at 25° C.): 0.5 % by weight | weight loss between 10 and 0% RH ([2]; GVS at 25° C.): 0.5%

More lines, main results first:

40° C./75% RH, observation (Storage at 40° C./75% RH; 15 h): deliquescence and 15 h - Deliquescence | 40° C./75% RH, XRPD (Storage at 40° C./75% RH): conversion to a new | AQ Solubility [4]: > 30 mg/mL
SMILES: CC[C@H](Nc1nc(NCc2cnc(C)cc2C)c2ncn(C(C)C)c2n1)[C@@H](C)O [Form J]
40° C./75% RH, appearance (Storage at 40° C./75% RH): crystallisation was observed; also recorded: Sticky solid | 40° C./75% RH, observation or form change (Storage at 40° C./75% RH): conversion to a new Pattern—HBr Pattern 2 (Form K)

hygroscopicity ([2]; listed as L-malate Pattern 1): hygroscopic | 40° C./75% RH, observation (Storage at 40° C./75% RH; 15 h): 15 h - Deliquescence | 40° C./75% RH, observation (Storage at 40° C./75% RH; 15 h, listed as L-malate Pattern 1): deliquescence | 40° C./75% RH, observation (Storage at 40° C./75% RH; 72 h): crystallisation had occurred | 40° C./75% RH, observation (Storage at 40° C./75% RH; 72 h, listed as L-malate Pattern 1): crystallisation of a new solid form | 40° C./75% RH, appearance (Storage at 40° C./75% RH): White solid | 40° C./75% RH, observation (Storage at 40° C./75% RH; inside 2 h): deliquescence | AQ Solubility [4]: 92 mg/mL
SMILES: CC[C@H](Nc1nc(NCc2cnc(C)cc2C)c2ncn(C(C)C)c2n1)[C@@H](C)O [Form Q]

appearance after storage ([1]; 25° C. and 75% RH for 70 hours): unchanged | hydrate formation at high RH (GVS) [2]: no hydrate is formed | hygroscopicity [2]: hygroscopic above only 70% RH
SMILES: CC[C@H](Nc1nc(NCc2cnc(C)cc2C)c2ncn(C(C)C)c2n1)[C@@H](C)O [Form F]
XRPD after storage ([1]; 25° C. and 75% RH for 70 hours): consistent with that of the original product | XRPD after storage ([1]; 25° C. and 94% RH for 3 days): same pattern as obtained for the initial product, but with a significant amorphous halo | appearance after storage ([1]; 25° C. and 94% RH for 3 days): slightly tacky, though it had not deliquesced

observation on storage [1]: deliquescence | hygroscopicity ([2]; listed as Maleate Pattern 1): hygroscopic above 75% RH | hygroscopicity ([2]; listed as maleate salt): hygroscopic above 40° C./70% RH | 40° C./75% RH, XRPD (Storage at 40° C./75% RH): consistent with Maleate | 40° C./75% RH, appearance (Storage at 40° C./75% RH): Sticky solid | 40° C./75% RH, observation or form change (Storage at 40° C./75% RH; listed as Maleate Pattern 1): sticky solid | AQ Solubility [4]: 73 mg/mL
SMILES: CC[C@H](Nc1nc(NCc2cnc(C)cc2C)c2ncn(C(C)C)c2n1)[C@@H](C)O [Form M]

hygroscopicity [2]: Non-hygroscopic, reversible uptake of | reversible uptake of water from 0 to 90% RH [2]: <0.4 wt % from 0 to 90% RH | reversible uptake of water from 0 to 90% RH ([2]; listed as Fumarate Pattern 1): less than 0.4 wt % | hygroscopicity ([2]; listed as Fumarate Pattern 1): non-hygroscopic | 40° C./75% RH, appearance (Storage at 40° C./75% RH): No visual change | AQ Solubility [4]: 54 mg/mL | Aqueous solubility [4]: approximately 50 mg. ml^−1
SMILES: CC[C@H](Nc1nc(NCc2cnc(C)cc2C)c2ncn(C(C)C)c2n1)[C@@H](C)O [Form P]

40° C./75% RH, XRPD (Storage at 40° C./75% RH): conversion to HCl | 40° C./75% RH, appearance (Storage at 40° C./75% RH): Sticky solid | AQ Solubility [4]: > 79 mg/mL
SMILES: CC[C@H](Nc1nc(NCc2cnc(C)cc2C)c2ncn(C(C)C)c2n1)[C@@H](C)O [Form I]
40° C./75% RH, observation or form change (Storage at 40° C./75% RH): unstable; also recorded: conversion to HCl Pattern 1 (Form H)

observation on storage [1]: deliquescence | hygroscopicity ([2]; listed as Mesylate Pattern 1): hygroscopic | 40° C./75% RH, observation (Storage at 40° C./75% RH; 15 h): 15 h - Deliquesced | 40° C./75% RH, observation (Storage at 40° C./75% RH; 15 h, listed as Mesylate Pattern 1): deliquescence | 40° C./75% RH, appearance (Storage at 40° C./75% RH): 7 d - No change | 40° C./75% RH, observation or form change (Storage at 40° C./75% RH; listed as mesylate salt): deliquescence | AQ Solubility [4]: 137 mg/mL | Aqueous solubility [4]: ~140 mg/mL
SMILES: CC[C@H](Nc1nc(NCc2cnc(C)cc2C)c2ncn(C(C)C)c2n1)[C@@H](C)O [Form L]

40° C./75% RH, observation (Storage at 40° C./75% RH; 30 min): 30 min - Deliquescence | AQ Solubility [4]: 75 mg/mL
SMILES: CC[C@H](Nc1nc(NCc2cnc(C)cc2C)c2ncn(C(C)C)c2n1)[C@@H](C)O [Form H]

appearance after storage ([1]; 25° C. and 75% RH for 70 hours): slightly tacky | appearance after storage ([1]; 25° C. and 94% RH for 2 hours): Deliquescence | hygroscopicity [2]: highly hygroscopic above 75% RH
SMILES: CC[C@H](Nc1nc(NCc2cnc(C)cc2C)c2ncn(C(C)C)c2n1)[C@@H](C)O [Form G]
XRPD after storage ([1]; 25° C. and 75% RH for 70 hours): consistent with that of the original product, but with a slightly larger amorphous halo
